ChEMBL document CHEMBL3352227, “Synthesis, antimycobacterial and antibacterial evaluation of l-[(1R, 2S)-2-fluorocyclopropyl]fluoroquinolone derivatives containing an oxime functional moiety” (Eur J Med Chem, 2014)
In brackets after ≈: the same amount, converted by molar mass.

Legend:
[1] = system: Mycobacterium tuberculosis; assay: Antimycobacterial activity against isoniazid and rifampicin resistant Mycobacterium tuberculosis 6133 by MABA method; assay type: functional
[2] = system: Mycobacterium tuberculosis; assay: Antimycobacterial activity against isoniazid and rifampicin resistant Mycobacterium tuberculosis 11277 by MABA method; assay type: functional

Compound	MIC [1] [µg/mL]	MIC [2] [µg/mL]
CO/N=C1/CN(c2cc3c(cc2F)c(=O)c(C(=O)O)cn3[C@@H]2C[C@@H]2F)[C@H]1CN	0.125 (≈ 0.319 µM)	0.25 (≈ 0.637 µM)
NC[C@H]1/C(=N\OCc2ccccc2)CN1c1cc2c(cc1F)c(=O)c(C(=O)O)cn2[C@@H]1C[C@@H]1F	0.25 (≈ 0.534 µM)	0.5 (≈ 1.07 µM)
CO/N=C1/CCN(c2c(F)cc3c(=O)c(C(=O)O)cn([C@@H]4C[C@@H]4F)c3c2OC)CC1N (stereo partly specified)	0.0625 (≈ 0.143 µM)	0.125 (≈ 0.286 µM)
C[C@H]1COc2c(N3CCN(C)CC3)c(F)cc3c(=O)c(C(=O)O)cn1c23.C[C@H]1COc2c(N3CCN(C)CC3)c(F)cc3c(=O)c(C(=O)O)cn1c23.O [LEVOFLOXACIN]	0.125	0.125
NNC(=O)c1ccncc1 [ISONIAZID]	4 (≈ 29.2 µM)	1 (≈ 7.29 µM)
CO/N=C1/CN(c2c(F)cc3c(=O)c(C(=O)O)cn([C@@H]4C[C@@H]4F)c3c2OC)[C@H]1CN	0.125 (≈ 0.296 µM)	0.25 (≈ 0.592 µM)
CCO/N=C1/CN(c2nc3c(cc2F)c(=O)c(C(=O)O)cn3[C@@H]2C[C@@H]2F)CC1CN (stereo partly specified)	0.125 (≈ 0.297 µM)	0.125 (≈ 0.297 µM)
CO/N=C1/CN(c2nc3c(cc2F)c(=O)c(C(=O)O)cn3[C@@H]2C[C@@H]2F)CC1CN (stereo partly specified)	0.125 (≈ 0.307 µM)	0.25 (≈ 0.614 µM)
CO[C@H]1/C=C/O[C@@]2(C)Oc3c(C)c(O)c4c(O)c(c(/C=N/N5CCN(C)CC5)c(O)c4c3C2=O)NC(=O)/C(C)=C\C=C\[C@H](C)[C@H](O)[C@@H](C)[C@@H](O)[C@@H](C)[C@H](OC(C)=O)[C@@H]1C [RIFAMPIN]	> 40	> 40
NCC1CN(c2nc3c(cc2F)c(=O)c(C(=O)O)cn3[C@@H]2C[C@@H]2F)C/C1=N/OCc1ccccc1 (stereo partly specified)	0.125 (≈ 0.259 µM)	0.5 (≈ 1.03 µM)
CCO/N=C1/CN(c2cc3c(cc2F)c(=O)c(C(=O)O)cn3[C@@H]2C[C@@H]2F)CC1CN (stereo partly specified)	0.125 (≈ 0.297 µM)	0.125 (≈ 0.297 µM)
O=C(O)c1cn(C2CC2)c2cc(N3CCNCC3)c(F)cc2c1=O [CIPROFLOXACIN]	0.125 (≈ 0.377 µM)	0.125 (≈ 0.377 µM)
NCC1CN(c2cc3c(cc2F)c(=O)c(C(=O)O)cn3[C@@H]2C[C@@H]2F)C/C1=N/OCc1ccccc1 (stereo partly specified)	0.125 (≈ 0.259 µM)	0.25 (≈ 0.518 µM)
